Experimental data from patent publication US9440988B2, “Regulators of the hedgehog pathway, compositions and uses related thereto” (John Hopkins University School of Medicine, priority 1008, dated 2016).

How the values were obtained:
Sonic hedgehog signaling = experiment: Clonal NIH-3T3 line with stably integrated Shh-responsive luciferase reporter (Shh-LIGHT/Shh-LIGHT2), inhibition of Sonic hedgehog induction; format: cell-based, mouse
Source text: FIG. 2 relates to a sensitive assay for Shh signaling in NIH-3T3 cells. (A) Purification of cholesterol- and palmitate-modified mouse Sonic hedgehog signaling domain ShhNp. Detergent-insoluble proteolipid complexes were isolated from 293 cells expressing full-length Shh (M. K. Cooper, J. A. Porter, K. E. Young, P. A. Beachy, Science 280, 1603 (1998)), and ShhNp was purified to apparent homogeneity by immunoaffinity chromatography. […] We therefore used the detergent insolubility of cholesterol-modified ShhN and affinity chromatography to purify the processed ShhN protein (ShhNp) from a human 293 cell line engineered to express the full length mouse Shh construct. Detergent-insoluble complexes (DIGs) were isolated as described by Brown and Rose (1992), with the following modifications. Cells from a 150 mm dish were lysed and collected in 2 mL of lysis solution (10 mM NaHPO4, pH 6.5, 150 mM NaCl, 0.5 mM PMSF, 1% Triton X-100, 2 μg/ml Pepstatin A, 10 μg/ml leupeptin, 5 μg/ml aprotinin, 2 μg/ml E64) at 4° C. […] Low-density, flocculent material was collected (from original position of 18.125% step), diluted 5-fold in 10 mM NaHPO4, pH 6.5, 150 mM NaCl and harvested by centrifugation at 20,000×g for 15 min (all at 4° C.). […] Mass standards migrated as indicated. […] NIH-3T3 cells cotransfected with Gli-luc reporter and TK promoter-driven Renilla luciferase control were treated with the indicated concentrations of ShhNp for 2 days. Confluent cultures of NIH-3T3 cells were plated at 1:6 dilution to 24 or 96-well plates. On the following day, the cells were transfected with renilla luciferase (pRL-TK or pRL-SV40; Clontech) or β-galactosidase transfection control (10% w/w DNA), Gli-Luc reporter (40%) and the constructs indicated (50%) using Fugene 6 (Roche) transfection reagent (250 ng (24 well plate) or 100 ng (96 well plate) DNA/well, 3:1 ratio (v/w) of reagent to DNA). […] Firefly and Renilla luciferase and β-galactosidase activities were assayed from the cell lysates by luminometry using dual luciferase (Promega) and Galacto-Light (Tropix) kits, respectively. Luciferase activities are normalized relative to control; a representative experiment is shown. […] Error bars indicate one standard deviation. […] Cultures of Shh-LIGHT (open boxes) or SmoA1-LIGHT (filled diamonds) cells were plated to 96-well plates in a series of twofold dilutions. The NIH-3T3 cell clone Shh-LIGHT and Shh-LIGHT2 stably incorporating the Gli-luc reporter and TK-renilla vectors were established by cotransfection with a vector encoding G418 resistance (pSV-Neo), followed by selection with G418 and cell cloning. Subsequently, a clonal subline of Shh-LIGHT expressing activated Smo (SmoA1-LIGHT) was established using an expression vector that allows hygromycin selection (pcDNA3.1+ hygro; Invitrogen). […] The Shh-LIGHT cells were treated with 4 nM ShhNp, and Gli-luciferase reporter activity was assayed after 24 h. Fold induction of the reporter (% of maximum is relative to equally dense Shh-LIGHT control culture) and cell densities (% of maximum Renilla luciferase activity) were measured at the end of the experiment. Error bars indicate one standard deviation (quadruplicate wells).
(§1) Relative reporter activity is normalized to maximum. […] Error bars in A and B indicate one standard deviation.

activated Smo (SmoA1) = experiment: Gli-luciferase reporter activity in cells expressing activated Smo (SmoA1-LIGHT); format: cell-based, mouse
Source text: FIG. 2 relates to a sensitive assay for Shh signaling in NIH-3T3 cells. (A) Purification of cholesterol- and palmitate-modified mouse Sonic hedgehog signaling domain ShhNp. Detergent-insoluble proteolipid complexes were isolated from 293 cells expressing full-length Shh (M. K. Cooper, J. A. Porter, K. E. Young, P. A. Beachy, Science 280, 1603 (1998)), and ShhNp was purified to apparent homogeneity by immunoaffinity chromatography. […] We therefore used the detergent insolubility of cholesterol-modified ShhN and affinity chromatography to purify the processed ShhN protein (ShhNp) from a human 293 cell line engineered to express the full length mouse Shh construct. Detergent-insoluble complexes (DIGs) were isolated as described by Brown and Rose (1992), with the following modifications. Cells from a 150 mm dish were lysed and collected in 2 mL of lysis solution (10 mM NaHPO4, pH 6.5, 150 mM NaCl, 0.5 mM PMSF, 1% Triton X-100, 2 μg/ml Pepstatin A, 10 μg/ml leupeptin, 5 μg/ml aprotinin, 2 μg/ml E64) at 4° C. […] Fold induction of the reporter (% of maximum is relative to equally dense Shh-LIGHT control culture) and cell densities (% of maximum Renilla luciferase activity) were measured at the end of the experiment. […]

[1] = test system: Shh pathway activity in Ptc1−/− cells
Source text: Since β-galactosidase is expressed from the Ptc1 locus, its expression reflects the activity of the Shh pathway. A representative experiment is shown. […] Cultures of NIH-3T3 cells were transfected (in triplicate) with Gli-luciferase reporter, TK-Renilla luciferase control vector and Smo or SmoA1 expression vectors. Smo DNA was used at 50% w/w, and SmoA1 at 50%, 5%, and 0.5% w/w. […] Error bars indicate one standard deviation. The leftmost four bars, shown for comparison, are as in FIG. 2C. […] NIH-3T3 cells were transfected with Gli-luc reporter, TK-Renilla, Ptc1CTD and SmoA1 expression vectors (Ptc to Smo DNA ratio=9). […] A representative experiment is shown. […] NIH-3T3 cells were cotransfected with Gli-luc reporter, β-galactosidase transfection control, and a control vector or an expression vector encoding the indicated Smo-Renilla luciferase fusion protein. In the representative experiment shown, Shh pathway activity and Smo protein levels were measured as firefly and Renilla luciferase activities relative to β-galactosidase, respectively.
as §1
Mice lacking function of Ptc1 display widespread activation of targets of Shh signaling, including of the Ptc1 gene itself (L. V. Goodrich, L. Milenkovic, K. M. Higgins, M. P. Scott, Science 277, 1109 (1997)). As β-galactosidase is expressed under the control of the Ptc1 promoter in these cells, β-galactosidase expression can be used to assay the state of Shh pathway activity (FIG. 3A).

p2PTC−/− cells = conditions: even at the highest doses used, 2 d
Source text: as §1

[2] = test system: P2A6 fibrosarcoma cells derived from Ptc−/− embryonic fibroblasts; experiment: Subcutaneous P2A6 fibrosarcoma tumors in female nude mice; format: in vivo, mouse; conditions: for differentiation status of tumors: compared with the tomatidine-treated control, FIG. 7; for Ki-67 proliferation rate: tumors after four days of treatment, blinded pathologist
Description: Female nude mice were injected subcutaneously with 5 million P2A6 fibrosarcoma cells derived from Ptc−/− embryonic fibroblasts. Three weeks after injection, each mouse had developed a discrete subcutaneous tumor. Each tumor was measured and treatments were initiated on the same day. […] The mice were killed, and tumors were measured and dissected out for histopathologic analysis. Tumor volumes were calculated as the product of length x width. The samples were paraformaldehyde-fixed and paraffin-embedded, and slides were cut for hematoxylin and eosin staining and for immunohistochemistry with polyclonal antibodies against the proliferation marker Ki-67 (Novacastra NCL-Ki67p; assay performed according to manufacturer's directions).

Shh pathway = experiment: Gli-luciferase reporter assay for Shh signaling in transiently transfected NIH-3T3 cells; format: cell-based, mouse; conditions: ShhNp-treated NIH-3T3 cells (FIG. 2C: ShhNp 4 nM, cyclopamine 5 μM, 2 d)
Hedgehog signaling = Hedgehog signaling assay in Drosophila c1-8 cells; format: cell-based; conditions: not shown
Source text: Cellular responses to the Hh signal are controlled by two multi-pass transmembrane proteins, Smo and Ptc1, predicted to have seven and twelve transmembrane spans, respectively. Smo is related to the Frizzled family of Wnt receptors and more distantly to the secretin family of G protein-coupled receptors (M. R. Barnes, D. M. Duckworth, L. J. Beeley, Trends Pharmacol Sci 19, 399 (1998)).

NIH-3T3 cells = conditions: data not shown
[3] = nude mice, once daily intraperitoneal, four days, one mouse per treatment

3-keto, N-aminoethyl aminocaproyl dihydrocinnamoyl cyclopamine [KAAD cyclopamine]
potency in suppression of ShhNp-induced pathway activity relative to cyclopamine (Sonic hedgehog signaling): 10-20 fold
blocking of pathway activation by tumor-derived / constitutively activated Smo (activated Smo (SmoA1)): can block
concentration suppressing SmoA1-induced reporter activity relative to that required for suppression of ShhNp signaling (activated Smo (SmoA1); higher, FIG. 4A): approximately 10 fold
blocking/suppression of pathway activity in cells lacking Ptc1 function [1]: can block
potency relative to cyclopamine in p2PTC−/− cells ([1]; FIG. 4B, 2 d): higher potency
minimum normalized β-galactosidase activity ([1]; p2PTC−/− cells, 2 d, normalized to cell mass, set to 0): 191
Maximum normalized β-galactosidase activity ([1]; p2PTC−/− cells, 2 d, normalized to cell mass, set to 1): 1103
Significant toxicity (microscopically visible cell death, or decrease in Cell Titer reading) (p2PTC−/− cells): not observed
differentiation status of tumors [2]: greater degree of differentiation
decrease of tumor size [2, 3]: 19%
Ki-67 proliferation rate [2]: 12%

C[C@H]1CC[C@]2(NC1)O[C@H]1C[C@H]3[C@@H]4CC[C@H]5C[C@@H](O)CC[C@]5(C)[C@H]4CC[C@]3(C)[C@H]1[C@@H]2C [tomatidine]
tumor growth over the treatment period [2, 3]: 17%
Ki-67 proliferation rate [2]: 30%

forskolin
induction of reporter by ShhNp (Shh pathway): prevented induction

CC1=C2C[C@H]3[C@@H](CC=C4C[C@@H](O)CC[C@@]43C)[C@@H]2CC[C@]12O[C@@H]1C[C@H](C)CN[C@H]1[C@H]2C [Compound 1, cyclopamine]
β-galactosidase expression [1]: significantly suppressed
Significant toxicity (microscopically visible cell death, or decrease in Cell Titer reading) (p2PTC−/− cells): not observed
differentiation status of tumors [2]: greater degree of differentiation
decrease of tumor size [2, 3]: 0.14%
Ki-67 proliferation rate [2]: 16%
sensitivity of Hedgehog signaling assay to the substance (Hedgehog signaling): resistant
concentration range in which toxic effects emerge (NIH-3T3 cells): 10 to 40 µM
